# Source: patent US8288379B2, “Thia-triaza-cyclopentazulenes” (Boehringer Ingelheim International GmbH, priority 2009, dated 2012)
# How the values were obtained:
# FRAP1 (mTOR) kinase = target: T1, FRAP1 (mTOR) kinase (Homo sapiens, UniProt P42345); experiment: Inhibition of mTOR-induced p-4E-BP1 phosphorylation (TR-FRET mTOR Activity Kit; Invitrogen); type: biochemical; conditions: 400 nM GFP-4E-BP1 substrate, ~150 ng/mL mTOR, one hour at room temperature
# T1 construct: purchased Invitrogen PV4753
# T1 sequence (P42345 1360-2549 limits assumed): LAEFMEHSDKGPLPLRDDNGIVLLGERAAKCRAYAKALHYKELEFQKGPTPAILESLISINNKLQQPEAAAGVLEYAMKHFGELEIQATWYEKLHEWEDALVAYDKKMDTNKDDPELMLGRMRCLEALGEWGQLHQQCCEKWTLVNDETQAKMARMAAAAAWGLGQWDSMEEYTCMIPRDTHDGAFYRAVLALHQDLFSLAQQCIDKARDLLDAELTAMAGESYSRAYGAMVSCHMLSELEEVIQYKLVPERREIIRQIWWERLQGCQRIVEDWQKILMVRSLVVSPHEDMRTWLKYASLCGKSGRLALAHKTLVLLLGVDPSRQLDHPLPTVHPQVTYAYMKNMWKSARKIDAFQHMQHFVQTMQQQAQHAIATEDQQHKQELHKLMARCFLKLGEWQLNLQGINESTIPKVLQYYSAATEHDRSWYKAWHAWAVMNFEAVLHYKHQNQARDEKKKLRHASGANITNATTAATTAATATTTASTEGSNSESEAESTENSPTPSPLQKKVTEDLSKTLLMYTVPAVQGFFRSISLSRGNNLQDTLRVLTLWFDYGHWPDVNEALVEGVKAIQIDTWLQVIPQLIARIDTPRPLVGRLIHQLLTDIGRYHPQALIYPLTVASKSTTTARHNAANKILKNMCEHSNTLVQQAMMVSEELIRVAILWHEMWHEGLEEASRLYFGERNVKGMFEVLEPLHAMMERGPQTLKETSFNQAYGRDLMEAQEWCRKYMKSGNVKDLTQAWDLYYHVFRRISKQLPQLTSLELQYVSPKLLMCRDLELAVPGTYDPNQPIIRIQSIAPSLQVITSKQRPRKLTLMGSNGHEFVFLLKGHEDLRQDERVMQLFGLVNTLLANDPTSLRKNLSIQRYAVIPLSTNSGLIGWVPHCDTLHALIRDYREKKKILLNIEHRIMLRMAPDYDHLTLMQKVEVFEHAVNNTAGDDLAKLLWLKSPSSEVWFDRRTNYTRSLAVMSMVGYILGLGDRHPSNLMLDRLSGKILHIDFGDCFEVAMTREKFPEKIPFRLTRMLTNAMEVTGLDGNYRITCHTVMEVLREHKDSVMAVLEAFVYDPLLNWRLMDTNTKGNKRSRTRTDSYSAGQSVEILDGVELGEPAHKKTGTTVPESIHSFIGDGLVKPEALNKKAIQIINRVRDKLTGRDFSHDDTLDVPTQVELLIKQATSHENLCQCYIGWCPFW
# Source text: Inhibition of mTOR-Induced p-4E-BP1 Phosphorylation (TR-FRET mTOR Activity Kit; Invitrogen)
# • GFP-4E-BP1 substrate; Invitrogen order no. PV4759 • Lanthascreen Tb-anti-p4E-BP1 (pThr46) Antibody Kit; Invitrogen order no. PV4758 • FRAP1 (mTOR) kinase; Invitrogen order no. […] Preparation of Reagents: Note: Thaw and keep mTOR, the substrate, ATP, and the antibody on ice prior to making working dilutions. Working dilutions of these components can be kept at room temperature for short periods of time the day of use. 1. Add 2 ml of 5× Assay Buffer to 8 ml water to prepare 10 ml of 1× Assay Buffer. Note: The concentration of 1× Assay Buffer is 50 mM HEPES pH 7.5, 0.01% Polysorbate 20, 1 mM EGTA, and 10 mM MnCl2. 2. Prepare Antibody/EDTA Solution by first adding 2.75 n1 of Tb-anti p4E-BP1 Antibody to 2397 n1 of LanthaScreen™ TR-FRET Dilution Buffer. Then, add 100 n1 of 0.5 M EDTA. 3. Prepare 4× Substrate/Enzyme Solution by first adding 72 n1 of GFP-4E-BP1 (22 nM) to 926 n1 of 1× Assay Buffer. Then, add 1.6 n1 of mTOR (0.45 mg/mL). 4. Prepare ATP Solution by adding 3.2 n1 of 10 mM ATP to 1997 n1 of 1× Assay Buffer. Serial Dilution of Inhibitors (16 Point Curve): Note: It is recommended that inhibitors be serially diluted in DMSO, then diluted to a 4× working concentration with 1× Assay Buffer. The below procedure describes dilution of compounds in a 96-well format prior to transfer to a 384-well format for kinase assays. This procedure calls for dilution of the compounds in 2 adjacent columns of a 96-well plate, which upon transfer to a single column of a 384-well plate with an 8-channel pipette will align the samples in order of concentration. 1. Dispense 40 n1 of DMSO to two adjacent columns of a 96 well plate per compound (e.g. columns 1 and 2). 2. Add 10 n1 of inhibitor stock (10 mM) to the first well of the first column (A1) and mix. 3. Remove 10 n1 from A1 and transfer to the adjacent well in the next column (B1) and mix. 4. Remove 10 n1 from B1 and transfer to the next well in the first column (B2) and mix. 5. Repeat this dilution pattern through well H1 and leave the last well (H2) as DMSO only. 6. Remove 4 n1 of diluted compounds and add to 96 n1 of 1× Assay Buffer in a 96-well plate making 4× compound dilutions. Kinase Reaction: 1. Add 2.5 μl of 4× compound dilutions from the first column of the 96-well plate to every other well of column 1 of a 384-well plate with an 8-channel pipette. Repeat for columns 2 and 3. 2. Add 2.5 n1 of 4× compound dilutions from the second column of the 96-well plate to the empty wells of column 1 of the 384-well plate with an 8-channel pipette. Repeat for columns 2 and 3. Note: This procedure aligns the compound dilutions in order of concentration. 3. Add 2.5 n1 of 4× Enzyme/Substrate Solution to all columns 1-6. 4. Preincubate for 30 min. at RT (shaker). 5. Add 5 n1 of ATP Solution to all wells to start reactions. 6. Shake the assay plate on a plate shaker for 30 seconds. 7. Incubate the assay plate for one hour at room temperature (20-25° C.). Stop Step and Fluorescence Detection: 1. Add 10 n1 of Antibody/EDTA Solution to each well in columns 1-9. 2. Shake the assay plate on a plate shaker for 30 seconds. 3. Incubate the assay plate for one hour at room temperature (20-25° C.). 4. Measure the GFP (FRET) and terbium (reference) emission signals on a fluorescence plate reader (e.g. Perkin Elmer Envision). Data Analysis: 1. Calculate the emission ratio for each sample by dividing the GFP (FRET) signal by the terbium (reference) signal. 2. Plot the concentration of each compound versus the emission ratio. Determine the concentration of compound required to reach 50% of the maximum signal (IC50). Determination of IC50 values can be obtained by curve fitting (sigmoidal dose response, variable slope) using Prism software from GraphPad). Inhibition of Proliferation: CyQuant PC-3 Description: […]
# PC-3 cells = experiment: Inhibition of proliferation: CyQuant PC-3; type: cell-based; conditions: 72 h; PC-3 human prostate carcinoma cells, incubated with compounds for 3 days, CyQuant NF DNA dye
# Experimental: • GFP-4E-BP1 substrate; Invitrogen order no. PV4759 • Lanthascreen Tb-anti-p4E-BP1 (pThr46) Antibody Kit; Invitrogen order no. PV4758 • FRAP1 (mTOR) kinase; Invitrogen order no. […] Preparation of Reagents: Note: Thaw and keep mTOR, the substrate, ATP, and the antibody on ice prior to making working dilutions. Working dilutions of these components can be kept at room temperature for short periods of time the day of use. 1. Add 2 ml of 5× Assay Buffer to 8 ml water to prepare 10 ml of 1× Assay Buffer. Note: The concentration of 1× Assay Buffer is 50 mM HEPES pH 7.5, 0.01% Polysorbate 20, 1 mM EGTA, and 10 mM MnCl2. 2. Prepare Antibody/EDTA Solution by first adding 2.75 n1 of Tb-anti p4E-BP1 Antibody to 2397 n1 of LanthaScreen™ TR-FRET Dilution Buffer. Then, add 100 n1 of 0.5 M EDTA. 3. Prepare 4× Substrate/Enzyme Solution by first adding 72 n1 of GFP-4E-BP1 (22 nM) to 926 n1 of 1× Assay Buffer. Then, add 1.6 n1 of mTOR (0.45 mg/mL). 4. Prepare ATP Solution by adding 3.2 n1 of 10 mM ATP to 1997 n1 of 1× Assay Buffer. Serial Dilution of Inhibitors (16 Point Curve): Note: It is recommended that inhibitors be serially diluted in DMSO, then diluted to a 4× working concentration with 1× Assay Buffer. The below procedure describes dilution of compounds in a 96-well format prior to transfer to a 384-well format for kinase assays. This procedure calls for dilution of the compounds in 2 adjacent columns of a 96-well plate, which upon transfer to a single column of a 384-well plate with an 8-channel pipette will align the samples in order of concentration. 1. Dispense 40 n1 of DMSO to two adjacent columns of a 96 well plate per compound (e.g. columns 1 and 2). 2. Add 10 n1 of inhibitor stock (10 mM) to the first well of the first column (A1) and mix. 3. Remove 10 n1 from A1 and transfer to the adjacent well in the next column (B1) and mix. 4. Remove 10 n1 from B1 and transfer to the next well in the first column (B2) and mix. 5. Repeat this dilution pattern through well H1 and leave the last well (H2) as DMSO only. 6. Remove 4 n1 of diluted compounds and add to 96 n1 of 1× Assay Buffer in a 96-well plate making 4× compound dilutions. Kinase Reaction: 1. Add 2.5 μl of 4× compound dilutions from the first column of the 96-well plate to every other well of column 1 of a 384-well plate with an 8-channel pipette. Repeat for columns 2 and 3. 2. Add 2.5 n1 of 4× compound dilutions from the second column of the 96-well plate to the empty wells of column 1 of the 384-well plate with an 8-channel pipette. Repeat for columns 2 and 3. Note: This procedure aligns the compound dilutions in order of concentration. 3. Add 2.5 n1 of 4× Enzyme/Substrate Solution to all columns 1-6. 4. Preincubate for 30 min. at RT (shaker). 5. Add 5 n1 of ATP Solution to all wells to start reactions. 6. Shake the assay plate on a plate shaker for 30 seconds. 7. Incubate the assay plate for one hour at room temperature (20-25° C.). Stop Step and Fluorescence Detection: 1. Add 10 n1 of Antibody/EDTA Solution to each well in columns 1-9. 2. Shake the assay plate on a plate shaker for 30 seconds. 3. Incubate the assay plate for one hour at room temperature (20-25° C.). 4. Measure the GFP (FRET) and terbium (reference) emission signals on a fluorescence plate reader (e.g. Perkin Elmer Envision). Data Analysis: 1. Calculate the emission ratio for each sample by dividing the GFP (FRET) signal by the terbium (reference) signal. 2. Plot the concentration of each compound versus the emission ratio. Determine the concentration of compound required to reach 50% of the maximum signal (IC50). Determination of IC50 values can be obtained by curve fitting (sigmoidal dose response, variable slope) using Prism software from GraphPad). Inhibition of Proliferation: CyQuant PC-3 Description:
# The CyQuant NF assay is based on measurement of cellular DNA content via fluorescent dye binding. Because cellular DNA content is highly regulated, it is closely proportional to cell number. […]
SMILES,IC50 (FRAP1 (mTOR) kinase) [nM],EC50 (PC-3 cells) [nM]
"CC(=O)Nc1nc2c(s1)-c1c(c(-c3ccc(N)nc3)nn1C1CCCOC1)CCC2 (centres unmarked) [Example B-65, N-[3-(6-Amino-pyridin-3-yl)-1-(tetrahydro-pyran-3-yl)-1,4,5,6-tetrahydro-9-thia-1,2,7-triaza-cyclopenta[e]azulen-8-yl]-acetamide]",13,75
"COCCC(=O)Nc1nc2c(s1)-c1c(c(-c3ccc(N)nc3)nn1-c1ccccc1C)CCC2 [Example B-103, N-[3-(6-Amino-pyridin-3-yl)-1-o-tolyl-1,4,5,6-tetrahydro-9-thia-1,2,7-triaza-cyclopenta[e]azulen-8-yl]-3-methoxy-propionamide]",37,87
"CN(C)CC(=O)Nc1nc2c(s1)-c1c(c(-c3ccc(N)nc3)nn1-c1ccccc1F)CCC2 [Example E-17, N-[3-(6-Amino-pyridin-3-yl)-1-(2-fluoro-phenyl)-1,4,5,6-tetrahydro-9-thia-1,2,7-triaza-cyclopenta[e]azulen-8-yl]-2-dimethylamino-acetamide]",65,171
CCNc1ccc(-c2nn(-c3cccc(OC)c3)c3c2CCCc2nc(NC(C)=O)sc2-3)cn1 [Example B-128],108,119
CNc1ccc(-c2nn(-c3ccccc3C)c3c2CCCc2nc(NC(=O)CCc4ncc[nH]4)sc2-3)cn1 [Example B-109],49,162
"CC(=O)Nc1nc2c(s1)-c1c(c(-c3ccc(N)nc3)nn1-c1ccccc1C)CCC2 [Example B-61, N-[3-(6-Amino-pyridin-3-yl)-1-o-tolyl-1,4,5,6-tetrahydro-9-thia-1,2,7-triaza-cyclopenta[e]azulen-8-yl]-acetamide]",15,69
CCNc1ccc(-c2nn(-c3ccccc3CC)c3c2CCCc2nc(NC(C)=O)sc2-3)cn1 [Example B-79],65,62
C=CCn1nc(-c2ccc(C)nc2)c2c1-c1sc(NC(C)=O)nc1CCC2 [Example B-25],899,437
C=CCn1nc(-c2ccc(NCC)nc2)c2c1-c1sc(NC(C)=O)nc1CCC2 [Example B-129],93,265
CNc1ccc(-c2nn(-c3ccccc3F)c3c2CCCc2nc(NC(=O)N(C)C)sc2-3)cn1 [Example B-43],141,191
CNc1ccc(-c2nn(C3CCN(C4CC4)CC3)c3c2CCCc2nc(NC(=O)N(C)C)sc2-3)cn1 [Example B-57],70,147
CC(=O)Nc1nc2c(s1)-c1c(c(-c3c[nH]cn3)nn1-c1ccccc1Cl)CCC2 [Example B-116],29,148
CC(C)n1nc(-c2ccc(N)nc2)c2c1-c1sc(NC(=O)N(C)C)nc1CCC2 [Example B-29],200,276
"CC(=O)Nc1nc2c(s1)-c1c(c(-c3ccc(C)nc3)nn1-c1ccccc1C)CCC2 [Example B-11, N-[3-(6-Methyl-pyridin-3-yl)-1-o-tolyl-1,4,5,6-tetrahydro-9-thia-1,2,7-triaza-cyclopent[e]azulen-8-yl]-acetamide]",805,476
"CC(C)n1nc(-c2ccc(N)nc2)c2c1-c1sc(NC(=O)CCCN(C)C)nc1CCC2 [Example B-135, N-[3-(6-Amino-pyridin-3-yl)-1-isopropyl-1,4,5,6-tetrahydro-9-thia-1,2,7-triaza-cyclopenta[e]azulen-8-yl]-4-dimethylamino-butyramide]",44,79
"CCNc1ccc(-c2nn(-c3ccccc3C)c3c2CCCc2nc(NC(C)=O)sc2-3)cn1 [Example B-07, N-[3-(6-Ethylamino-pyridin-3-yl)-1-o-tolyl-1,4,5,6-tetrahydro-9-thia-1,2,7-triaza-cyclopenta[e]azulen-8-yl]-acetamide]",55,128
